Measured values taken from patent US20250098679A1, “HERBICIDAL PYRIDONE DERIVATIVES” (SYNGENTA CROP PROTECTION AG, priority 2021, published 2025).

Columns and labels:
Format in all cases: in vivo
Settings in all cases: evaluated after 13 days
Zea mays (ZEAMX) [1] = test: Pre-emergence Test, Zea mays (ZEAMX)
[2] = tested on: Amaranthus palmeri (AMAPA); test: Pre-emergence Test, Amaranthus palmeri (AMAPA)
[3] = tested on: Echinochloa crus-galli (ECHCG); test: Pre-emergence Test, Echinochloa crus-galli (ECHCG)
[4] = tested on: Amaranthus retoflexus (AMARE); test: Post-emergence Test, Amaranthus retoflexus (AMARE); set-up: key to percentage damage caused to the plant, AMARE (five-point scale): 5=81-100%, 4=61-80%, 3=41-60%, 2=21-40%, 1=0-20% damage
Method in brief: (§1)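 Percent plant damage was rated 13 days post-application on a 1–5 scale (1=0-20%, 5=81-100%). Application used an aqueous acetone (50:50)/0.5% Tween 20 spray, normally 1000 g/ha, with controlled glasshouse conditions (24/16 °C, 14 h light, 65% humidity).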

Zea mays (ZEAMX) [5] = test: Post-emergence Test, Zea mays (ZEAMX); set-up: key to percentage damage caused to the plant, ZEAMX (five-point scale): 5=81-100%, 4=61-80%, 3=41-60%, 2=21-40%, 1=0-20% damage
Method in brief: as §1

[6] = tested on: Amaranthus retoflexus (AMARE); test: Pre-emergence Test, Amaranthus retoflexus (AMARE)
[7] = tested on: Echinochloa crus-galli (ECHCG); test: Post-emergence Test, Echinochloa crus-galli (ECHCG); set-up: key to percentage damage caused to the plant, ECHCG (five-point scale): 5=81-100%, 4=61-80%, 3=41-60%, 2=21-40%, 1=0-20% damage
Method in brief: as §1

[8] = tested on: Ipomoea hederacea (IPOHE); test: Post-emergence Test, Ipomoea hederacea (IPOHE); set-up: key to percentage damage caused to the plant, IPOHE (five-point scale): 5=81-100%, 4=61-80%, 3=41-60%, 2=21-40%, 1=0-20% damage
Method in brief: as §1

Setaria faberi (SETFA) [9] = test: Pre-emergence Test, Setaria faberi (SETFA)
[10] = tested on: Ipomoea hederacea (IPOHE); test: Pre-emergence Test, Ipomoea hederacea (IPOHE)
Setaria faberi (SETFA) [11] = test: Post-emergence Test, Setaria faberi (SETFA); set-up: key to percentage damage caused to the plant, SETFA (five-point scale): 5=81-100%, 4=61-80%, 3=41-60%, 2=21-40%, 1=0-20% damage
Method in brief: as §1

[12] = tested on: Amaranthus palmeri (AMAPA); test: Post-emergence Test, Amaranthus palmeri (AMAPA); set-up: key: 5=81-100%, 4=61-80%, 3=41-60%, 2=21-40%, 1=0-20% damage
Method in brief: as §1

CCn1c(Cn2nc(Cl)cc2C(F)(F)F)cc(=O)c(C(=O)O)c1-c1ccc(Cl)c(Cl)c1 [Compound 104, 6-[[3-chloro-5-(trifluoromethyl)pyrazol-1-yl]methyl]-2-(3,4-dichlorophenyl)-1-ethyl-4-oxo-pyridine-3-carboxylic acid]
Pre-emergence Test ZEAMX, percentage damage caused to the plant (five-point scale) (Zea mays (ZEAMX) [1]; 250 g/Ha (*)): 2 (2=21-40%)
Pre-emergence Test ZEAMX, percentage damage caused to the plant (five-point scale) (Zea mays (ZEAMX) [1]; 1000 g/ha): 5 (5=81-100%)
Pre-emergence Test AMAPA, percentage damage caused to the plant (five-point scale) ([2]; 250 g/Ha (*)): 1 (1=0-20%)
Pre-emergence Test AMAPA, percentage damage caused to the plant (five-point scale) ([2]; 1000 g/ha): 1 (1=0-20%)
Pre-emergence Test ECHCG, percentage damage caused to the plant (five-point scale) ([3]; 250 g/Ha (*)): 5 (5=81-100%)
Pre-emergence Test ECHCG, percentage damage caused to the plant (five-point scale) ([3]; 1000 g/ha): 5 (5=81-100%)
percentage damage caused to the plant, AMARE (five-point scale) ([4]; 250 g/Ha): 3 (3=41-60%)
percentage damage caused to the plant, AMARE (five-point scale) ([4]; 1000 g/ha): 4 (4=61-80%)
percentage damage caused to the plant, ZEAMX (five-point scale) (Zea mays (ZEAMX) [5]; 250 g/Ha): 4 (4=61-80%)
percentage damage caused to the plant, ZEAMX (five-point scale) (Zea mays (ZEAMX) [5]; 1000 g/ha): 4 (4=61-80%)
Pre-emergence Test AMARE, percentage damage caused to the plant (five-point scale) ([6]; 250 g/Ha (*)): 1 (1=0-20%)
Pre-emergence Test AMARE, percentage damage caused to the plant (five-point scale) ([6]; 1000 g/ha): 1 (1=0-20%)
percentage damage caused to the plant, ECHCG (five-point scale) ([7]; 250 g/Ha): 4 (4=61-80%)
percentage damage caused to the plant, ECHCG (five-point scale) ([7]; 1000 g/ha): 4 (4=61-80%)
percentage damage caused to the plant, IPOHE (five-point scale) ([8]; 250 g/Ha): 4 (4=61-80%)
percentage damage caused to the plant, IPOHE (five-point scale) ([8]; 1000 g/ha): 3 (3=41-60%)
Pre-emergence Test SETFA, percentage damage caused to the plant (five-point scale) (Setaria faberi (SETFA) [9]; 250 g/Ha (*)): 5 (5=81-100%)
Pre-emergence Test SETFA, percentage damage caused to the plant (five-point scale) (Setaria faberi (SETFA) [9]; 1000 g/ha): 5 (5=81-100%)
Pre-emergence Test IPOHE, percentage damage caused to the plant (five-point scale) ([10]; 250 g/Ha (*)): 1 (1=0-20%)
Pre-emergence Test IPOHE, percentage damage caused to the plant (five-point scale) ([10]; 1000 g/ha): 4 (4=61-80%)
percentage damage caused to the plant, SETFA (five-point scale) (Setaria faberi (SETFA) [11]; 250 g/Ha): 4 (4=61-80%)
percentage damage caused to the plant, SETFA (five-point scale) (Setaria faberi (SETFA) [11]; 1000 g/ha): 4 (4=61-80%)
percentage damage caused to the plant, AMAPA (five-point scale) ([12]; 250 g/Ha): 3 (3=41-60%)
percentage damage caused to the plant, AMAPA (five-point scale) ([12]; 1000 g/ha): 4 (4=61-80%)

CCn1c(Cn2ncc3cnc(Cl)cc32)cc(=O)c(C(=O)O)c1-c1ccc(Cl)c(Cl)c1 [Compound 75, 6-[(6-chloropyrazolo[4,3-c]pyridin-1-yl)methyl]-2-(3,4-dichlorophenyl)-1-ethyl-4-oxo-pyridine-3-carboxylic acid]
Pre-emergence Test ZEAMX, percentage damage caused to the plant (five-point scale) (Zea mays (ZEAMX) [1]; 250 g/Ha (*)): 0
Pre-emergence Test AMAPA, percentage damage caused to the plant (five-point scale) ([2]; 250 g/Ha (*)): 1 (1=0-20%)
Pre-emergence Test ECHCG, percentage damage caused to the plant (five-point scale) ([3]; 250 g/Ha (*)): 1 (1=0-20%)
percentage damage caused to the plant, AMARE (five-point scale) ([4]; 250 g/Ha): 1 (1=0-20%)
percentage damage caused to the plant, ZEAMX (five-point scale) (Zea mays (ZEAMX) [5]; 250 g/Ha): 0
Pre-emergence Test AMARE, percentage damage caused to the plant (five-point scale) ([6]; 250 g/Ha (*)): 1 (1=0-20%)
percentage damage caused to the plant, ECHCG (five-point scale) ([7]; 250 g/Ha): 1 (1=0-20%)
percentage damage caused to the plant, IPOHE (five-point scale) ([8]; 250 g/Ha): 0
Pre-emergence Test SETFA, percentage damage caused to the plant (five-point scale) (Setaria faberi (SETFA) [9]; 250 g/Ha (*)): 1 (1=0-20%)
Pre-emergence Test IPOHE, percentage damage caused to the plant (five-point scale) ([10]; 250 g/Ha (*)): 0
percentage damage caused to the plant, SETFA (five-point scale) (Setaria faberi (SETFA) [11]; 250 g/Ha): 0
percentage damage caused to the plant, AMAPA (five-point scale) ([12]; 250 g/Ha): 1 (1=0-20%)

CCn1c(Cn2nc(C)cc2Cl)cc(=O)c(C(=O)O)c1-c1ccc(Cl)c(Cl)c1 [Compound 17, 6-[(5-chloro-3-methyl-pyrazol-1-yl)methyl]-2-(3,4-dichlorophenyl)-1-ethyl-4-oxo-pyridine-3-carboxylic acid]
Pre-emergence Test ZEAMX, percentage damage caused to the plant (five-point scale) (Zea mays (ZEAMX) [1]; 1000 g/ha): 2 (2=21-40%)
Pre-emergence Test AMAPA, percentage damage caused to the plant (five-point scale) ([2]; 1000 g/ha): 5 (5=81-100%)
Pre-emergence Test ECHCG, percentage damage caused to the plant (five-point scale) ([3]; 1000 g/ha): 4 (4=61-80%)
percentage damage caused to the plant, AMARE (five-point scale) ([4]; 250 g/Ha): 5 (5=81-100%)
percentage damage caused to the plant, AMARE (five-point scale) ([4]; 1000 g/ha): 3 (3=41-60%)
percentage damage caused to the plant, ZEAMX (five-point scale) (Zea mays (ZEAMX) [5]; 250 g/Ha): 2 (2=21-40%)
percentage damage caused to the plant, ZEAMX (five-point scale) (Zea mays (ZEAMX) [5]; 1000 g/ha): 3 (3=41-60%)
Pre-emergence Test AMARE, percentage damage caused to the plant (five-point scale) ([6]; 1000 g/ha): 2 (2=21-40%)
percentage damage caused to the plant, ECHCG (five-point scale) ([7]; 250 g/Ha): 4 (4=61-80%)
percentage damage caused to the plant, ECHCG (five-point scale) ([7]; 1000 g/ha): 4 (4=61-80%)
percentage damage caused to the plant, IPOHE (five-point scale) ([8]; 250 g/Ha): 3 (3=41-60%)
percentage damage caused to the plant, IPOHE (five-point scale) ([8]; 1000 g/ha): 5 (5=81-100%)
Pre-emergence Test SETFA, percentage damage caused to the plant (five-point scale) (Setaria faberi (SETFA) [9]; 1000 g/ha): 4 (4=61-80%)
Pre-emergence Test IPOHE, percentage damage caused to the plant (five-point scale) ([10]; 1000 g/ha): 3 (3=41-60%)
percentage damage caused to the plant, SETFA (five-point scale) (Setaria faberi (SETFA) [11]; 250 g/Ha): 3 (3=41-60%)
percentage damage caused to the plant, SETFA (five-point scale) (Setaria faberi (SETFA) [11]; 1000 g/ha): 4 (4=61-80%)
percentage damage caused to the plant, AMAPA (five-point scale) ([12]; 250 g/Ha): 5 (5=81-100%)
percentage damage caused to the plant, AMAPA (five-point scale) ([12]; 1000 g/ha): 5 (5=81-100%)

CCn1c(Cn2cc(F)cn2)cc(=O)c(C(=O)O)c1-c1ccc(Cl)c(Cl)c1 [Compound 9, 2-(3,4-dichlorophenyl)-1-ethyl-6-[(4-fluoropyrazol-1-yl)methyl]-4-oxo-pyridine-3-carboxylic acid]
Pre-emergence Test ZEAMX, percentage damage caused to the plant (five-point scale) (Zea mays (ZEAMX) [1]; 250 g/Ha (*)): 0
Pre-emergence Test ZEAMX, percentage damage caused to the plant (five-point scale) (Zea mays (ZEAMX) [1]; 1000 g/ha): 0
Pre-emergence Test AMAPA, percentage damage caused to the plant (five-point scale) ([2]; 250 g/Ha (*)): 1 (1=0-20%)
Pre-emergence Test AMAPA, percentage damage caused to the plant (five-point scale) ([2]; 1000 g/ha): 2 (2=21-40%)
Pre-emergence Test ECHCG, percentage damage caused to the plant (five-point scale) ([3]; 250 g/Ha (*)): 5 (5=81-100%)
Pre-emergence Test ECHCG, percentage damage caused to the plant (five-point scale) ([3]; 1000 g/ha): 5 (5=81-100%)
percentage damage caused to the plant, AMARE (five-point scale) ([4]; 250 g/Ha): 0
percentage damage caused to the plant, AMARE (five-point scale) ([4]; 1000 g/ha): 0
percentage damage caused to the plant, ZEAMX (five-point scale) (Zea mays (ZEAMX) [5]; 250 g/Ha): 0
percentage damage caused to the plant, ZEAMX (five-point scale) (Zea mays (ZEAMX) [5]; 1000 g/ha): 2 (2=21-40%)
Pre-emergence Test AMARE, percentage damage caused to the plant (five-point scale) ([6]; 250 g/Ha (*)): 0
Pre-emergence Test AMARE, percentage damage caused to the plant (five-point scale) ([6]; 1000 g/ha): 1 (1=0-20%)
percentage damage caused to the plant, ECHCG (five-point scale) ([7]; 250 g/Ha): 3 (3=41-60%)
percentage damage caused to the plant, ECHCG (five-point scale) ([7]; 1000 g/ha): 4 (4=61-80%)
percentage damage caused to the plant, IPOHE (five-point scale) ([8]; 250 g/Ha): 3 (3=41-60%)
percentage damage caused to the plant, IPOHE (five-point scale) ([8]; 1000 g/ha): 1 (1=0-20%)
Pre-emergence Test SETFA, percentage damage caused to the plant (five-point scale) (Setaria faberi (SETFA) [9]; 250 g/Ha (*)): 5 (5=81-100%)
Pre-emergence Test SETFA, percentage damage caused to the plant (five-point scale) (Setaria faberi (SETFA) [9]; 1000 g/ha): 5 (5=81-100%)
Pre-emergence Test IPOHE, percentage damage caused to the plant (five-point scale) ([10]; 250 g/Ha (*)): 1 (1=0-20%)
Pre-emergence Test IPOHE, percentage damage caused to the plant (five-point scale) ([10]; 1000 g/ha): 0
percentage damage caused to the plant, SETFA (five-point scale) (Setaria faberi (SETFA) [11]; 250 g/Ha): 4 (4=61-80%)
percentage damage caused to the plant, SETFA (five-point scale) (Setaria faberi (SETFA) [11]; 1000 g/ha): 3 (3=41-60%)
percentage damage caused to the plant, AMAPA (five-point scale) ([12]; 250 g/Ha): 0
percentage damage caused to the plant, AMAPA (five-point scale) ([12]; 1000 g/ha): 1 (1=0-20%)
